Laboratory results taken from patent US9440971B2, “Solid state forms of vemurafenib hydrochloride” (ratiopharm GmbH, priority 2013, dated 2016).
Structures can show the parent of a compound that is named as a salt. Where two headings read alike, the source gives them in different places.

Tests used:
[1] = conditions not given; cited from earlier work
[2] = as observed in WO 2010/114928 and WO 2010/129570; cited from earlier work
[3] = Storage stability of the crystalline form at controlled temperature and relative humidity; assay type: physicochemical; conditions: up to at least 24 weeks, hydrochloride
Description: Particularly, crystalline Vemurafenib HCl form II has high chemical purity and excellent stability properties. […] Therefore, the crystalline Vemurafenib HCl form II may be used to prepare an oral formulation which is stable and has a relatively small tablet or capsule size as the molar ratio of Vemurafenib to HCl is about 1:1, which is highly advantageous for preparing pharmaceutical compositions with high drug load.

[4] = Solubility; assay type: physicochemical
[5] = 25° C. and 60% relative humidity (RH)

In the case of `CCCS(=O)(=O)Nc1ccc(F)c(C(=O)c2c[nH]c3ncc(-c4ccc(Cl)cc4)cc23)c1F` [Amorphous Vemurafenib], the “stability of amorphous form” value [1] is listed as “not stable”.

In the case of `CCCS(=O)(=O)Nc1ccc(F)c(C(=O)c2c[nH]c3ncc(-c4ccc(Cl)cc4)cc23)c1F` [Vemurafenib, propane-1-sulfonic acid {3-[5-(4-chlorophenyl)-1H-pyrrolo[2,3-b]pyridine-3-carbonyl]-2,4-difluoro-phenyl}-amide], the solubility [2] is given as “extremely low solubility”.

With `CCCS(=O)(=O)Nc1ccc(F)c(C(=O)c2c[nH]c3ncc(-c4ccc(Cl)cc4)cc23)c1F` [crystalline Vemurafenib HCl form I, Vemurafenib hydrochloride] the stability upon storage [3, 5] was “converts to Vemurafenib free base” and the stability upon storage ([3]; 30° C./65% RH) was “converts to Vemurafenib free base”.

With `CCCS(=O)(=O)Nc1ccc(F)c(C(=O)c2c[nH]c3ncc(-c4ccc(Cl)cc4)cc23)c1F` [crystalline Vemurafenib HCl form II, Vemurafenib hydrochloride] the stability upon storage [3, 5] was “stable”, the stability upon storage ([3]; 30° C./65% RH) was “stable” and the solubility [4] was “good solubility”.
